Changes are numbered by the printed parent chain. Like-named read-outs stand apart in the source and are kept apart here.
Key:
MdfA = target: MdfA; parameters: method as in Heng et al., 2015; conditions: ref Heng et al., 2015; read-out: Binding affinity between MdfA and the substrate; cited from earlier work
SotB [1] = target: T1, SotB (Escherichia coli, UniProt P31122); experiment: SPR affinity assay, wild-type SotB; format: binding
T1 construct: The full-length sotB and lapC genes from the E. coli MG1655 genome were subcloned into the cloning vector pET28a; 8xHis (C); made in house; host or cells: E. coli C43(DE3)
T1 sequence (P31122 whole entry): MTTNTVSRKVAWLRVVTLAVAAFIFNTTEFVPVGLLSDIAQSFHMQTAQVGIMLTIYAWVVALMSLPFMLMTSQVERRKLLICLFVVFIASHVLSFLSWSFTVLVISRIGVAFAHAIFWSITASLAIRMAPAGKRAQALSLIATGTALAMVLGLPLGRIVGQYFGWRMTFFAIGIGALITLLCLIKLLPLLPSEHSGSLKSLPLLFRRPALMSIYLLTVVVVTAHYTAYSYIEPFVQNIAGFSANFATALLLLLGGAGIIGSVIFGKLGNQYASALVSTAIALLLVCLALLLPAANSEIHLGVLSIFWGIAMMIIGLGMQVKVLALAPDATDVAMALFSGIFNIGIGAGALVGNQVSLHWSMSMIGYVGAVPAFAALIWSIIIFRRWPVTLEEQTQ
Protocol: (§1) The instrument used in surface plasmon resonance (SPR) affinity assays was OpenSPR (Nicoya, Canada) and the chip used was COOH sensor chip (Nicoya, Canada). SotB and its variants were as ligands. IPTG, L-arabinose, D-xylose, D-glucose, D-fructose, and D-mannose were as small molecules. Using HSB-EP buffer (10 mM HEPES, 150 mM NaCl, 3 mM EDTA, 0.005% Tween-20, pH7.4) as test buffer and setting flow rate 150 μl/min after installed COOH chip according to OpenSPRTM instrument standard operating procedure. After the signal baseline was reached, loading 200 μl 80% isopropyl alcohol and ran for 10 s to drain bubbles. After reaching baseline, the sample ring was rinsed with HSB-EP buffer and emptied with air. After the signal reached the baseline, loading 200 μl EDC (400 mM, Sigma)/NHS (100 mM, Sigma; 1:1) solution with a flow rate 20 μl/min for 4 min. Then, loading 200 μl ligand (SotB/SotB variants) diluted by the activation buffer (sodium acetate, 10 mM, pH3.5) and ran for 4 min (20 μl/min). Then the sample ring was rinsed with HSB-EP buffer and emptied with air. Loading 200 μl 1 M ethanolamine (Sigma) blocking solution (20 μl/min, 4 min), rinsed the sample ring with HSB-EP buffer, and emptied the sample ring with air. Observing baseline for 5 min to ensure stability. The small molecules were diluted with PBS buffer (2 mM of KH2PO4, 10 mM of Na2HPO4, 2.7 mM of KCl, and 137 mM of NaCl at pH 7.4), and the concentration was shown in the experimental results. The flow rate for small molecules was performed at 20 μl/min. The binding time of small molecule and ligand was 240 s, and the dissociation was 240 s. The analysis software used for the experimental results was TraceDrawer, and the analysis method was one-to-one analysis model.

[2] = system: intact E. coli MG1655 strain; experiment: Growth curve (L-arabinose inhibition / D-xylose competition) assay, intact MG1655; format: cell-based, Escherichia coli
Description: In the process of sotB gene knockout, two plasmids were introduced into E. coli MG1655 strain: the plasmid pEcCas expressing Cas9 protein (kanamycin resistance) and the plasmid pEcgRNA/sotB expressing related gRNA (spectinomycin resistance). The pEcCas plasmid was successfully eliminated in this study. […] Thus, the sotB-deletion strain has resistance to spectinomycin. In order to carry out the related L-arabinose inhibition assay more strictly, the same plasmid (pEcgRNA/sotB) was then transformed into intact E. coli MG1655 cells, and the growth conditions of the two strains were measured as follows: The E. coli MG1655 cells (intact cells and sotB-deletion cells) were grown in liquid LB medium containing spectinomycin (50 μg/ml) at 37°C for overnight. The cells were then diluted to an OD600 value of 0.8 with liquid LB medium containing spectinomycin (50 μg/ml). Then, the cells were further diluted 1,000 times with liquid LB medium containing spectinomycin (50 μg/ml). The diluted cells were added to a 96-well plate (200 μl/well). Then, L-arabinose was added with final concentrations of 0 μM, 10 μM, 100 μM, 1 mM, 10 mM, and 100 mM, respectively. The 96-well plate was incubated at 37°C, and the OD600 value was measured every 1 h with a microplate reader. For the competition assay, the intact MG1655 cells diluted 1,000 times were divided into two parts and then added into 96-well plate (200 μl/well). One part was directly added with D-xylose at a final concentration of 0, 1, and 10 mM, respectively; the other part was first added with L-arabinose at a final concentration of 10 mM, then D-xylose was added with final concentrations of 0, 1, and 10 mM, respectively. The method of growth curve measurement is the same as above. All the experiments were repeated at least three times.

XlyE = target: XlyE; parameters: method as in Sun et al., 2012; conditions: ref Sun et al., 2012; read-out: Binding affinity between XlyE and its substrate; cited from earlier work
SotB [3] = target: T1, SotB; conditions: ref Koita and Rao, 2012; cited from earlier work
SotB E29A = target: T2, SotB E29A (Escherichia coli, UniProt P31122, E29A); experiment: SPR affinity assay, SotB variant E29A; conditions: read-out: KD, binding affinity with E29A
T2 construct: The full-length sotB and lapC genes from the E. coli MG1655 genome were subcloned into the cloning vector pET28a; 8xHis (C); made in house; host or cells: E. coli C43(DE3)
T2 sequence (P31122 1-396 E29A): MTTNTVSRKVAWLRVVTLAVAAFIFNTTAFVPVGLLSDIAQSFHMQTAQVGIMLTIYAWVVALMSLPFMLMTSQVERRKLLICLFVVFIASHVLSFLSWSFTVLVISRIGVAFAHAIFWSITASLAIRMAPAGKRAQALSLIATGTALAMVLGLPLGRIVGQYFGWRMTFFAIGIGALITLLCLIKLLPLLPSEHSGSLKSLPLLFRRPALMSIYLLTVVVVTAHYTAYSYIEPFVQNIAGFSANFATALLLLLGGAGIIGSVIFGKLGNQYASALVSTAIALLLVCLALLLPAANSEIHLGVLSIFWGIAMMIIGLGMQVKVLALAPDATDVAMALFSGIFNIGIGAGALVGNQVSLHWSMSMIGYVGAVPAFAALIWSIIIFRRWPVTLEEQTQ
Protocol: as §1, with “The small molecules were diluted with PBS buffer (2 mM of KH2PO4, 10 mM of Na2HPO4, 2.7 mM of KCl, and 137 mM of NaCl at pH 7.4), and the concentration was shown in the experimental results. The flow rate for small molecules was performed at 20 μl/min. The binding time of small molecule and ligand was 240 s, and the dissociation was 240 s. The analysis software used for the experimental results was TraceDrawer, and the analysis method was one-to-one analysis model.” left out

SotB H115A = target: T3, SotB H115A (Escherichia coli, UniProt P31122, H115A); experiment: SPR affinity assay, SotB variant H115A; format: binding; conditions: SotB variant H115A, read-out: KD, binding affinity with H115A
T3 construct: The full-length sotB and lapC genes from the E. coli MG1655 genome were subcloned into the cloning vector pET28a; 8xHis (C); made in house; host or cells: E. coli C43(DE3)
T3 sequence (P31122 1-396 H115A): T2 sequence (P31122 1-396 E29A) with A29E, H115A
Protocol: as §1

SotB W119A = target: T4, SotB W119A (Escherichia coli, UniProt P31122, W119A); experiment: SPR affinity assay, SotB variant W119A; conditions: read-out: KD, binding affinity with W119A
T4 construct: The full-length sotB and lapC genes from the E. coli MG1655 genome were subcloned into the cloning vector pET28a; 8xHis (C); made in house; host or cells: E. coli C43(DE3)
T4 sequence (P31122 1-396 W119A): T2 sequence (P31122 1-396 E29A) with A29E, W119A
Protocol: as §1, with “The small molecules were diluted with PBS buffer (2 mM of KH2PO4, 10 mM of Na2HPO4, 2.7 mM of KCl, and 137 mM of NaCl at pH 7.4), and the concentration was shown in the experimental results. The flow rate for small molecules was performed at 20 μl/min. The binding time of small molecule and ligand was 240 s, and the dissociation was 240 s. The analysis software used for the experimental results was TraceDrawer, and the analysis method was one-to-one analysis model.” left out

SotB S339A = target: T5, SotB S339A (Escherichia coli, UniProt P31122, S339A); experiment: SPR affinity assay, SotB variant S339A; conditions: read-out: KD, binding affinity with S339A
T5 construct: The full-length sotB and lapC genes from the E. coli MG1655 genome were subcloned into the cloning vector pET28a; 8xHis (C); made in house; host or cells: E. coli C43(DE3)
T5 sequence (P31122 1-396 S339A): T2 sequence (P31122 1-396 E29A) with A29E, S339A
Protocol: as §1, with “The small molecules were diluted with PBS buffer (2 mM of KH2PO4, 10 mM of Na2HPO4, 2.7 mM of KCl, and 137 mM of NaCl at pH 7.4), and the concentration was shown in the experimental results. The flow rate for small molecules was performed at 20 μl/min. The binding time of small molecule and ligand was 240 s, and the dissociation was 240 s. The analysis software used for the experimental results was TraceDrawer, and the analysis method was one-to-one analysis model.” left out

SotB N343A = target: T6, SotB N343A (Escherichia coli, UniProt P31122, N343A); experiment: SPR affinity assay, SotB variant N343A; format: binding; conditions: SotB variant N343A, read-out: KD, binding affinity with N343A
T6 construct: The full-length sotB and lapC genes from the E. coli MG1655 genome were subcloned into the cloning vector pET28a; 8xHis (C); made in house; host or cells: E. coli C43(DE3)
T6 sequence (P31122 1-396 N343A): T2 sequence (P31122 1-396 E29A) with A29E, N343A
Protocol: as §1

FucP = target: FucP; parameters: method as in Dang et al., 2010; conditions: ref Dang et al., 2010; read-out: Binding affinity between FucP and the substrate; cited from earlier work
MelB = target: MelB; parameters: method as in Ethayathulla et al., 2014; conditions: ref Ethayathulla et al., 2014; read-out: Binding affinity between MelB and the substrate; cited from earlier work
SotB [4] = target: T1, SotB; experiment: Cell based radiotracer uptake assay; conditions: E. coli C43(DE3), 0.1 μM tracer, 1 h, p < 0.01
Protocol: The cell-based uptake assay was performed with the following protocol. Plasmids pET28a and pET28a/sotB were transformed into E. coli C43(DE3) competent cells, respectively. Then, these two kinds of cells were grown in LB medium at 37°C and induced with 0.2 mM IPTG for 1 h, when the cell density reached an OD600 of about 1.5. Cells were then harvested by centrifugation. After being washed three times with MK buffer (150 mM KCl, 5 mM MES, pH 6.5), the cells were resuspended in the same buffer to an OD600 of 2.0. To measure the transport activity of SotB protein, took 5 ml of the above cell suspension, respectively, and added ^3H-L-arabinose (American Radiolabeled Chemicals) at a final concentration of 0.1 μM. All the reactions lasted 1 h and were stopped by diluting the cell suspension with 5 ml ice-cold MK buffer. Cells were then harvested by centrifugation. After being washed three times with ddH2O, the cells were resuspended in 5 ml ddH2O, respectively. Then the cells were added to the sample bottle, respectively, and mixed with the same volume of excess scintillation, and then taken for liquid scintillation counting. All the experiments were repeated at least three times.

[5] = SPR, wild-type SotB immobilised, one-to-one model, read-out: KD (equilibrium dissociation constant), binding affinity with SotB

O=C(N[C@H](CO)[C@H](O)c1ccc([N+](=O)[O-])cc1)C(Cl)Cl [Chloramphenicol]
Kd (MdfA): 0.075 mM

O=C(CO)[C@@H](O)[C@H](O)[C@H](O)CO [D-fructose]
Kd (SotB [1]): 6.6 mM

OC[C@H]1OC(O)[C@H](O)[C@@H](O)[C@@H]1O (stereo partly drawn) [D-glucose]
Kd (SotB [1]; [5]): 2.6 mM

OC[C@H]1OC(O)[C@@H](O)[C@@H](O)[C@@H]1O (stereo partly drawn) [D-mannose]
Kd (SotB [1]; [5]): 3.1 mM

O=C[C@H](O)[C@@H](O)[C@H](O)CO [D-xylose]
Binding affinity to SotB, fold higher than that of L-arabinose to SotB (SotB [1]; SPR, wild-type SotB): 8.7 fold
Kd (SotB [1]; [5]): 0.47 mM
Effect on growth (OD600 growth curve) ([2]; intact MG1655, 1 mM D-xylose, without L-arabinose): did not cause any growth inhibition
Effect on growth (OD600 growth curve) ([2]; intact MG1655, 10 mM D-xylose in the presence of 10 mM L-arabinose): inhibit the growth
Effect on growth (OD600 growth curve) ([2]; intact MG1655, 10 mM D-xylose, without L-arabinose): did not cause any growth inhibition
Kd (XlyE): 0.35 mM
Transport by SotB (SotB [3]): cannot transport

CC(C)S[C@@H]1O[C@H](CO)[C@H](O)[C@H](O)[C@H]1O [IPTG, isopropyl-β-D-1-thiogalactopyranoside]
Binding affinity with SotB, fold lower than that of L-arabinose with SotB (SotB [1]; SPR, wild-type SotB): ~2.5 fold
Kd (SotB [1]; [5]): 10.2 mM
Kd (SotB E29A): 7.6 mM
Kd (SotB H115A): 13.7 mM
Kd (SotB W119A): 6.7 mM
Kd (SotB S339A): 7.6 mM
Kd (SotB N343A): 15 mM

C[C@H](O)[C@@H](O)[C@@H](O)[C@H](O)C=O [fucose]
Kd (FucP): 0.47 mM

OC[C@H]1O[C@H](OCC2O[C@@H](O)[C@H](O)[C@@H](O)[C@@H]2O)[C@H](O)[C@@H](O)[C@H]1O (stereo partly drawn) [melibiose]
Kd (MelB): 1 mM

^3H-L-arabinose
Accumulation in cells expressing wild-type SotB relative to empty vector pET28a (SotB [4]): significant reduced accumulation
